Reference: publication PMC4610306 (Journal of Medicinal Chemistry, 2015)
“Also recorded” adds a separate entry of the source.

Experiments:
[1] = target: PAD2 (Homo sapiens, UniProt Q9Y2J8); experiment: Inactivation kinetics; assay type: biochemical
[2] = tested on: mouse neutrophils; experiment: NET formation, PMA-stimulated neutrophils, DNA/neutrophil elastase overlap assay; assay type: cell-based; settings: Cl-amidine as reference
[3] = Murine hepatic microsome stability assay; assay type: in vitro ADME, mouse
[4] = tested on: U2OS cells; experiment: Cell viability, colorimetric XTT assay; assay type: cell-based, human

Sequence of PAD2 (Q9Y2J8 whole entry): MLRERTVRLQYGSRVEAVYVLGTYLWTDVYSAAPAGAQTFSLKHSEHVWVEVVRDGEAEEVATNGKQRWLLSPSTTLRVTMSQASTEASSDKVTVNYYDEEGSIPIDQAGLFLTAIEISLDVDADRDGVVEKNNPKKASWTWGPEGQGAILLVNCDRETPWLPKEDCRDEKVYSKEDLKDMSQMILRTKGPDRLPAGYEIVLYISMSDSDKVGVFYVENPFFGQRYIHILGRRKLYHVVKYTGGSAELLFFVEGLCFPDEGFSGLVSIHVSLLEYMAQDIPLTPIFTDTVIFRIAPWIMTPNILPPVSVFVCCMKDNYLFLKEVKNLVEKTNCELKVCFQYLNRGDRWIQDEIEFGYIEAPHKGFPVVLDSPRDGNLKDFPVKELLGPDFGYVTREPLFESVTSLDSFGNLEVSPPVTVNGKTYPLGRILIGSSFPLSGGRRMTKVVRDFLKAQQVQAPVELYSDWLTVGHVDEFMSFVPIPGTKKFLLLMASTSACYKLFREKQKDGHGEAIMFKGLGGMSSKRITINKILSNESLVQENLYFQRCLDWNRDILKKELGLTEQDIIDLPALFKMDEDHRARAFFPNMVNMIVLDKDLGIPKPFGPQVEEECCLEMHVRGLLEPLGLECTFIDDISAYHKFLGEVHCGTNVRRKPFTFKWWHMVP

Row | Compound | kinact/KI [1] | EC50 improvement over parent compound Cl-amidine [4] | inhibition of NET formation [2] | also measured
1 | N=C(CF)NCCC[C@H](NC(=O)c1ccccc1)C(N)=O [F-amidine, reference compound] | 6.33 M⁻¹ s⁻¹ | – | – | –
2 | CC(C)(C)n1nnc([C@H](CCCNC(=N)CCl)NC(=O)c2ccccc2C(=O)O)n1 [Compound 21, o-carboxyl tetrazole tert-butyl Cl-amidine] | – | – | inhibits NET formation only at very high concentrations; also recorded: inhibits NET formation at higher doses | stability / half-life in mouse hepatic microsomes [3]: half-life mimics those obtained for the fluoro analogs
3 | CC(C)(C)n1nnc([C@H](CCCNC(=N)CCl)NC(=O)c2ccc(-c3ccccc3)cc2)n1 [Compound 13, biphenyl tetrazole tert-butyl Cl-amidine] | – | 16 fold | significantly more potent than Cl-amidine; also recorded: significantly reduces NET formation compared to Cl-amidine | effect on cell growth / cell viability ([4]; 20 μM, 72 h, XTT): completely abolished cell growth; also recorded: completely abolishes the growth
4 | CC(C)(C)n1nnc([C@H](CCCNC(=N)CF)NC(=O)c2ccc(-c3ccccc3)cc2)n1 [Compound 14, biphenyl tetrazole tert-butyl-F-amidine] | – | 3.5 fold | – | –

Now from value to compound, other results behind:

Row | kinact/KI [1] | EC50 improvement over parent compound Cl-amidine [4] | Compound | inhibition of NET formation [2] | also measured
5 | 125 M⁻¹ s⁻¹ | – | CC(C)(C)n1nnc([C@H](CCCNC(=N)CCl)NC(=O)c2ccccc2)n1 [Compound 6, tetrazole tert-butyl Cl-amidine] | – | –
6 | 108 M⁻¹ s⁻¹ | – | CC(C)(C)n1nnc([C@H](CCCNC(=N)CF)NC(=O)c2ccccc2)n1 [Compound 7, tetrazole tert-butyl-F-amidine] | – | –
